Measurements taken from PubChem BioAssay (NCI).
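Tested at 5 concentrations; 48 h exposure; 96-well plates; endpoints linearly interpolated, else capped at highest concentration. TGI marks complete inhibition of growth.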

Tests used:
Test in all cases: growth of human tumour cells (NCI), 48 h
[1] = system: DLD-1 colon
[2] = system: RXF-631 renal
[3] = system: LXFL 529 NSCLC
[4] = system: DMS 114 small cell lung
[5] = system: DMS 273 small cell lung
[6] = system: M19-MEL melanoma
[7] = system: KM20L2 colon
[8] = system: HOP-18 NSCLC
[9] = system: SNB-78 CNS

Question: With `OC(c1cc2ccccc2[nH]1)C(O)(c1cc2ccccc2[nH]1)c1cc2ccccc2[nH]1` (stereo not given) as the molecule, how does the TGI [1] read?
Answer: The TGI was 48 µM.

Question: What about the TGI [2] of the same molecule?
Answer: The TGI was 58.3 µM.

Question: And the TGI [3]?
Answer: The TGI was 40.2 µM.

Question: And the TGI [4]?
Answer: Its TGI is 29 µM.

Question: What about the TGI [5] of the same molecule?
Answer: Its TGI is 48.8 µM.

Question: And the TGI [6]?
Answer: Its TGI is 23.1 µM.

Question: What about the TGI [7] of the same molecule?
Answer: The TGI was over 245 µM.

Question: `CC1=C(C(=O)O)N2C(=O)[C@@H](NC(=O)C(c3ccccc3)N3CSC(=S)N(C(C)C)C3)C2SC1` (stereo not given in full) was tested. Which TGI [1] did it give?
Answer: The TGI was over 100 µM.

Question: And the TGI [3]?
Answer: Its TGI is over 100 µM.

Question: And the TGI [5]?
Answer: Its TGI is over 100 µM.

Question: And the TGI [6]?
Answer: Its TGI is over 100 µM.

Question: And the TGI [8]?
Answer: The TGI was over 100 µM.

Question: And the TGI [7]?
Answer: Its TGI is over 100 µM.

Question: What about the TGI [9] of the same molecule?
Answer: Its TGI is over 100 µM.

Question: `CC1=C(O)C(=O)C2C(=O)C1C(C)C2c1ccccc1` (stereo not given) was tested. Which TGI [1] did it give?
Answer: The TGI was over 100 µM.

Question: And the TGI [3]?
Answer: The TGI was over 100 µM.

Question: What about the TGI [5] of the same molecule?
Answer: The TGI was over 100 µM.

Question: And the TGI [6]?
Answer: Its TGI is over 100 µM.

Question: What about the TGI [9] of the same molecule?
Answer: Its TGI is over 100 µM.

Question: How did the TGI [1] turn out when `CC(C)(Oc1ccc2c(=O)cc(-c3ccc(Cl)cc3)oc2c1)C(=O)Nc1c(Cl)cccc1Cl` was run?
Answer: Its TGI is over 100 µM.

Question: What about the TGI [3] of the same molecule?
Answer: The TGI was over 100 µM.

Question: And the TGI [4]?
Answer: Its TGI is over 100 µM.

Question: What about the TGI [5] of the same molecule?
Answer: The TGI was over 100 µM.

Question: What about the TGI [6] of the same molecule?
Answer: The TGI was over 100 µM.

Question: What about the TGI [8] of the same molecule?
Answer: The TGI was over 100 µM.

Question: And the TGI [7]?
Answer: The TGI was over 100 µM.

Question: And the TGI [9]?
Answer: Its TGI is over 100 µM.

Question: For `C/C(=N\N)C(CN1CCOCC1)C(c1ccccc1)c1c(O)c2ccccc2oc1=O` (stereo not given), which TGI [1] is on record?
Answer: Its TGI is over 100 µM.

Question: What about the TGI [3] of the same molecule?
Answer: The TGI was over 100 µM.

Question: What about the TGI [4] of the same molecule?
Answer: The TGI was over 100 µM.

Question: What about the TGI [5] of the same molecule?
Answer: Its TGI is over 100 µM.

Question: And the TGI [6]?
Answer: Its TGI is over 100 µM.

Question: And the TGI [7]?
Answer: The TGI was over 100 µM.

Question: What about the TGI [9] of the same molecule?
Answer: Its TGI is over 100 µM.

Question: Which results are given for `N=C1c2ccccc2C(=O)c2c(NCCNCCO)ccc(O)c21`?
Answer: TGI [1]: 22.3 µM; TGI [3]: 27.8 µM; TGI [4]: 15.1 µM; TGI [5]: 18.9 µM; TGI [6]: 17.3 µM; TGI [8]: 54.8 µM; TGI [7]: 22 µM; TGI [9]: > 60 µM

Question: Which results are given for `CCCCN(C)CC(C(C)=O)C(c1ccccc1)c1c(O)c2ccccc2oc1=O` (stereo not given)?
Answer: TGI [1]: > 100 µM; TGI [3]: > 100 µM; TGI [4]: > 100 µM; TGI [5]: > 100 µM; TGI [6]: > 100 µM; TGI [8]: > 100 µM; TGI [7]: > 100 µM; TGI [9]: > 100 µM

Question: How did the TGI [1] turn out when `O=C([O-])c1ccccc1Nc1ccccc1C(=O)[O-].[OH3+].[Zn+2]` was run?
Answer: The TGI was over 83.7 µM.

Question: What about the TGI [3] of the same molecule?
Answer: The TGI was 44.7 µM.

Question: What about the TGI [4] of the same molecule?
Answer: Its TGI is 37.4 µM.

Question: What about the TGI [5] of the same molecule?
Answer: The TGI was 29.2 µM.

Question: What about the TGI [6] of the same molecule?
Answer: Its TGI is 50.1 µM.

Question: And the TGI [8]?
Answer: The TGI was over 75.9 µM.

Question: And the TGI [7]?
Answer: Its TGI is over 100 µM.

Question: What about the TGI [9] of the same molecule?
Answer: The TGI was over 87.1 µM.

Question: `CSc1nc2nccnc2c(=O)[nH]1` was tested. Which TGI [1] did it give?
Answer: The TGI was over 100 µM.

Question: What about the TGI [3] of the same molecule?
Answer: Its TGI is over 100 µM.

Question: What about the TGI [4] of the same molecule?
Answer: The TGI was over 100 µM.

Question: And the TGI [5]?
Answer: Its TGI is over 100 µM.

Question: And the TGI [6]?
Answer: Its TGI is over 100 µM.

Question: And the TGI [8]?
Answer: The TGI was over 100 µM.

Question: What about the TGI [7] of the same molecule?
Answer: The TGI was over 100 µM.
